Where two headings read alike, the source gives them in different places.
Legend:
Type in all cases: in vivo, Female Sprague Dawley rats
[1] = Interconversion clearance between 6G and 6S after intravenous administration; conditions: single i.v. 3 mg/kg
Experimental: The interconversion between 6G and 6S was determined using previously published methods ([Ebling and Jusko, 1986]; [Prueksaritanont et al., 2005]). The clearance of 6G biotransformed into 6S was calculated as CL12, while the reverse clearance (6S → 6G) was calculated as CL21. The irreversible elimination clearances of 6G and 6S were calculated as CL10 and CL20, respectively. The following equations were used in accordance with the notation provided in Supplementary Table S3. CL12=Dose^shogaol […] CL21=Dose^gingerol […] CL10=Dose^gingerol x AUCshogaolshogaol- Dose^shogaol […] CL20=Dose^shogaol […]- Dose^gingerol […]

[2] = Percent recovery in urine and feces after intravenous or oral administration; conditions: for parent compound recovered in urine: during 24–48 h; for dose excreted: female, Sprague Dawley, rat, % of administered dose; for unchanged form in fecal excretion: within 48 h after intravenous or oral administration
Experimental: (§1) This study is composed of two sections; the first section involves an investigation of the interconversion pharmacokinetics of the pure compounds, and the second focuses on tissue distribution. All rats were transferred to metabolic cages and fasted overnight for at least 10 h. The animals were then randomly divided into four groups (6 rats/group) to receive a single intravenous (i.v.) administration of either 6G, 6S, zingerone, or vehicle via the lateral tail vein at a dosage of 3 mg/kg. After a 7-week washout period, the rats received 30 mg/kg of the same test compounds through a single oral (p.o.) administration. Following each administration, blood samples (300 µL) were collected in heparinized tubes from the lateral tail vein (while rats were under anesthesia with isoflurane) at specified time points: 0.083, 0.25, 0.5, 1, 1.5, 2, 3, 4, 6, 8, and 24 h after administration. An additional 1 mL of blood sample was collected from each rat at pre-dose (0 h) and post-dose (24 h) for clinical laboratory testing and safety evaluation. All heparinized blood samples were initially centrifuged at 5,000 × g, 4 °C, for 10 min. Subsequently, the plasma was carefully transferred to a cryotube as an aliquot sample and then stored at −40 °C until analysis. Urine and feces were collected during the intervals of 0–24 h and 24–48 h post-dosing, and their weights and volumes were documented. All collected urine and feces samples were stored at −40 °C until analysis.
Urine samples were centrifuged, and 50 µL of urine was extracted with 200 µL of 100% methanol. The mixture was vortexed for 10 min and subsequently centrifuged at 14,000 × g at 4 °C for 10 min. Feces and organs were weighed and homogenized with methanol (50:50% w/v). The supernatants of the extracted urine, feces, and organs were also filtered through a […] PVDF membrane (Chrome Tech, MN, USA) before analysis.
(§2) Investigation of glucuronide conjugations followed a previously published method with some modification ([Wang et al., 2017]; [Songvut et al., 2023]). A 50 μL aliquot of plasma, urine, or feces sample was incubated at 37 °C for a minimum of 30 min with 50 μL of β-glucuronidase (3,000 U/mL) in a sodium phosphate buffer (pH 6.8). For sample extraction, 150 μL of methanol containing 50 μg/L of IS was pipetted into the pre-incubated samples. Subsequently, the mixtures were vortexed for 10 min and then centrifuged at 14,000 × g at 4 °C for 10 min. The supernatants were filtered through a […] PVDF membrane (Chrome Tech, MN, United States) and then analyzed using the validated LC-MS/MS method.
(§3) Plasma concentration-time profiles were plotted using GraphPad Prism 9.3.0 (GraphPad Software, USA). The absolute oral bioavailability was calculated as follows: F = (AUC p.o./dose p.o.)/(AUC i.v./dose i.v.). The percentage recovery of each administered compound was calculated as the total amount of the drug found in urine or feces divided by the administered dose. The tissue-to-plasma concentration ratios (K p) were calculated by dividing the concentration in the tissue by the corresponding plasma concentration at the respective sampling time point.

[3] = Pharmacokinetics and oral bioavailability after single oral administration (30 mg/kg), plasma LC-MS/MS; conditions: for bioavailability / AUC(0-inf) / AUC(0-t) / Tmax: plasma, 30 mg/kg; for AUC(0-t): read-out: AUC(0-t); for Tmax: median [IQR]; for presence of parent compound in plasma: following oral administration; for time to detectable plasma levels: oral administration of pure compound; for time to reach peak plasma concentration (Cmax): parent compound after oral administration 30 mg/kg
Experimental: as §1
Plasma samples were processed through protein precipitation. In brief, 50 µL of plasma was mixed with 200 µL of methanol containing 50 ng/mL of IS (dihydrocapsaicin). The mixtures were vortexed and centrifuged at 14,000 × g at 4 °C for 10 min. The supernatant was filtered through a […] PVDF membrane (Chrome Tech, MN, USA) before analysis.
as §2
Quantitative analysis was conducted using liquid chromatography-tandem mass spectrometry (LC-MS/MS) with a Nexera X2 LCMS-8060NX instrument (Shimadzu, Japan). The instrument included a CBM-40lite system controller, CTO-40C column oven, SIL-40C XR autosampler, LC-40D XR solvent pump unit, FCV-DGU-403 degasser, and 20AH2 switching valve. The LC-MS/MS system was operated with a binary pump and equipped with a triple quadrupole mass spectrometer.
Pharmacokinetic parameters were assessed using PK Solutions software (version 2.0) with non-compartmental analysis. The AUC was calculated using the Linear-Log Trapezoidal Method. The maximum plasma concentration (Cmax) and time to reach maximum plasma concentration (Tmax) were taken directly from the graph.
as §3

[4] = Safety evaluation: physical appearance and blood chemistry after single i.v. or p.o. dose; conditions: for ALP / ALT / AST / BUN / Creatinine: post-dose (24 h), mean ± SD n=6; for Physical appearance: post-dose
Experimental: as §1
Plasma samples were collected at baseline (T0) and T24 h for the determination of blood chemistry, including levels of blood urea nitrogen (BUN), creatinine, aspartate transaminase (AST), alanine transaminase (ALT), and alkaline phosphatase (ALP). The analyses were conducted by the Exclusive Veterinary Professional Laboratory Center (Bangkok, Thailand). The creatinine level was determined using an enzymatic oxidase assay, while AST and ALT levels were determined using the procedure of the International Federation of Clinical Chemistry (IFCC) without pyridoxal phosphate activation.

[5] = feces, iv, 3 mg/kg, intravenous administration 3 mg/kg of parent compound, read-out: % Recovery excretion, feces T 0–24 h
[6] = feces, iv, 3 mg/kg, intravenous administration 3 mg/kg of parent compound, read-out: % Recovery excretion, feces T 24–48 h
[7] = feces, po, 30 mg/kg, oral administration 30 mg/kg of parent compound, read-out: % Recovery excretion, feces T 0–24 h
[8] = feces, po, 30 mg/kg, oral administration 30 mg/kg of parent compound, read-out: % Recovery excretion, feces T 24–48 h
[9] = urine, iv, 3 mg/kg, intravenous administration 3 mg/kg of parent compound, read-out: % Recovery excretion, urine T 0–24 h
[10] = urine, iv, 3 mg/kg, intravenous administration 3 mg/kg of parent compound, read-out: % Recovery excretion, urine T 24–48 h
[11] = urine, po, 30 mg/kg, oral administration 30 mg/kg of parent compound, read-out: % Recovery excretion, urine T 0–24 h
[12] = urine, po, 30 mg/kg, oral administration 30 mg/kg of parent compound, read-out: % Recovery excretion, urine T 24–48 h
[13] = female, Sprague-Dawley, rat, po, p.o. 30 mg/kg vs i.v. 3 mg/kg of the pure compound, mean ± SD n=6, read-out: %Oral bioavailability
[14] = female, Sprague-Dawley, rat, po, p.o. 30 mg/kg vs i.v. 3 mg/kg of the pure compound, range among rats, read-out: %Oral bioavailability (range)
[15] = female, Sprague-Dawley, rat, po, p.o. 30 mg/kg vs i.v. 3 mg/kg, pure compounds, read-out: absolute oral bioavailability (upper bound)
[16] = female, Sprague-Dawley, rat, po, plasma analyte after [6]-gingerol p.o. 30 mg/kg, mean ± SD n=6
[17] = female, Sprague-Dawley, rat, po, plasma analyte after [6]-gingerol p.o. 30 mg/kg
[18] = female, Sprague-Dawley, rat, po, plasma analyte after zingerone p.o. 30 mg/kg, mean ± SD n=6

| Structure (SMILES) | parent compound recovered in urine [2] | dose excreted [2, 5] | dose excreted [2, 6] | dose excreted [2, 7] | dose excreted [2, 8] | dose excreted [2, 9] | dose excreted [2, 10] | dose excreted [2, 11] | dose excreted [2, 12] | unchanged form in fecal excretion [2] | bioavailability [3, 13] | bioavailability [3, 14] | bioavailability [3, 15] | AUC(0-inf) [3, 16] | AUC(0-t) [3, 16] | Tmax [3, 17] | presence of parent compound in plasma [3] | time to detectable plasma levels [3] | time to reach peak plasma concentration (Cmax) [3] | ALP ([4]; i.v. 3 mg/kg) | also measured |
| --- | --- | --- | --- | --- | --- | --- | --- | --- | --- | --- | --- | --- | --- | --- | --- | --- | --- | --- | --- | --- | --- |
| CCCCC[C@H](O)CC(=O)CCc1ccc(O)c(OC)c1 [[6]-gingerol] | less than 1% | 0.005 ± 0.002% | 0.005 ± 0.001% | 0.001 ± 0.001% | < 0.001% | 0.623 ± 0.706% | 0.008 ± 0.005% | 0.1 ± 0.102% | 0.002 ± 0.001% | < 0.1% | 0.17 ± 0.11% | 0.1 to 0.4% | < 2% | 92.1 ± 26.9 ng·h/mL | 92.1 ± 26.9 ng·h/mL | 4.8 min | up to 4 h | ≤ 5 min | 5 to 45 min | 44.67 ± 7.09 U/L | clearance ([1]; female, Sprague-Dawley, rat, plasma, iv, read-out: CL10 (irreversible elimination clearance of 6G) (converted)): 8.67 mL/min/kg; CL12 relative to reverse clearance CL21 [1]: approximately sevenfold greater; plasma level of converted product ([3]; after oral administration of 6S 30 mg/kg): undetectable; ALT ([4]; i.v. 3 mg/kg): 20.33 ± 2.42 U/L; AST ([4]; i.v. 3 mg/kg): 65.83 ± 19.66 U/L; BUN ([4]; i.v. 3 mg/kg): 12.83 ± 2.64 mg/dL; Creatinine ([4]; i.v. 3 mg/kg): 0.73 ± 0.04 mg/dL; ALP ([4]; p.o. 30 mg/kg): 32.67 ± 7.45 U/L; ALT ([4]; p.o. 30 mg/kg): 21.23 ± 2.44 U/L; AST ([4]; p.o. 30 mg/kg): 60.50 ± 7.12 U/L; BUN ([4]; p.o. 30 mg/kg): 12.17 ± 2.86 mg/dL; Creatinine ([4]; p.o. 30 mg/kg): 0.66 ± 0.03 mg/dL; Physical appearance ([4]; i.v. 3 mg/kg): Normal; Physical appearance ([4]; p.o. 30 mg/kg): Normal |
| COc1cc(CCC(C)=O)ccc1O [zingerone, 4-(4-hydroxy-3-methoxyphenyl)-2-butanone] | less than 1% | 0.049 ± 0.027% | 0.002 ± 0.001% | 0.004 ± 0.003% | 0.057 ± 0.017% | 0.184 ± 0.286% | < 0.001% | 0.049 ± 0.032% | < 0.001% | < 0.1% | 0.75 ± 0.52% | 0.32 to 1.6% | < 2% | 28 ± 7.4 ng·h/mL | 28 ± 7.4 ng·h/mL | 15 min | up to 4 h | ≤ 5 min | 5 to 45 min | 48.50 ± 14.00 U/L | plasma detection of zingerone after 6S administration ([3]; after 6S administration (route not given)): not detected; AUC(0-inf) [3, 18]: 950 ± 373 ng·h/mL; AUC(0-t) [3, 18]: 944 ± 348 ng·h/mL; Tmax ([3]; female, Sprague-Dawley, rat, po, plasma analyte after zingerone p.o. 30 mg/kg): 4.8 min; Cmax [3, 18]: 1870 ± 604 ng/mL; ALT ([4]; i.v. 3 mg/kg): 28.50 ± 5.82 U/L; AST ([4]; i.v. 3 mg/kg): 64.17 ± 11.05 U/L; BUN ([4]; i.v. 3 mg/kg): 14.17 ± 1.33 mg/dL; Creatinine ([4]; i.v. 3 mg/kg): 0.70 ± 0.03 mg/dL; ALP ([4]; p.o. 30 mg/kg): 35.83 ± 8.38 U/L; ALT ([4]; p.o. 30 mg/kg): 19.33 ± 2.50 U/L; AST ([4]; p.o. 30 mg/kg): 53.83 ± 6.88 U/L; BUN ([4]; p.o. 30 mg/kg): 9.83 ± 1.47 mg/dL; Creatinine ([4]; p.o. 30 mg/kg): 0.75 ± 0.02 mg/dL; Physical appearance ([4]; i.v. 3 mg/kg): Normal; Physical appearance ([4]; p.o. 30 mg/kg): Normal; Tolerability ([4]; single i.v. 3 mg/kg or p.o. 30 mg/kg): exhibited tolerance |

— article PMC11187260, “Unraveling the interconversion pharmacokinetics and oral bioavailability of the major ginger constituents: [6]-gingerol, [6]-shogaol, and zingerone after single-dose administration in rats” (Frontiers in Pharmacology, 2024)
